Experimental data: patent US9464082B2, “Aryl and arylalkyl substituted pyrazolyl and pyrimidinyl tricyclic enones as antioxidant inflammation modulators” (AbbVie Inc., priority 2014, dated 2016)

What follows are molecules tested on IFNγ-Induced NO Production (assay: Nitric Oxide Suppression Assay (Suppression of IFNγ-Induced NO Production)). Conditions: RAW264.7; RAW 264.7 mouse macrophage cells; 2 hour pre-treatment with compound (3 μM to 0.3 nM, 10 point curve); 20 ng/mL interferon gamma, ~18 hour; Griess detection; n=2-3 in duplicates.
Format: cell-based
Procedure: RAW 264.7, a mouse macrophage cell line, was obtained from American Type Culture Collection (Manassas Va.) and maintained in the log phase of growth in Dulbecco's Modified Eagle's Medium (DMEM), 10% heat inactivated fetal calf serum and 100 units/mL antibiotic-antimycotic (AA). Cells were cultured and maintained in a humidified incubator at 37° C. under 5% CO2 and 95% air. Cells were sub-cultured every 3 days by scraping and were not used beyond passage 20. All cell culture supplies were obtained from Life Technologies (Grand Island, N.Y.).
RAW 264.7 cells were plated 1 day in advance of experiment at a concentration of 80,000 cells/well onto CellBIND® 96 well plates (Corning, N.Y.) in a total volume of 100 μL. The next day, pre-treat cells with compounds (from 3 μM to 0.3 nM serially diluted in a 10 point curve) from a 10× stock by adding 10 μL per well in complete DMEM media containing 10% fetal calf serum. The plates were centrifuged for 3 minutes at 400×g at room temperature followed by 2 hour incubation at 37° C. The cells were then incubated overnight at 37° C. with 10 μL of the insult, interferon gamma (R&D Systems, Minneapolis, Minn.), from a 10× stock for a final concentration of 20 ng/mL. The plates were centrifuged for 3 minutes at 400×g at room temperature followed by ˜18 hour incubation at 37° C. The following day, transfer 50 μL cell culture supernatant from each well into a clear bottom 96 well plate and follow the instructions from Promega's Griess Detection Kit #G2930 (Madison, Wis.) which involves the addition of 50 μL of the provided sulfanilamide solution for a 5-10 minute incubation at room temperature. Next add 50 μL of the provided N-1-napthylethylenediamine dihydrochloride (NED) solution for a 5-10 minute incubation at room temperature and protected from light. If any air bubbles were introduced into the well, the plates need to be centrifuged for 5 minutes at 400×g at room temperature to avoid interference with absorbance readings. The plates were read for absorbance within 30 minutes with a filter between 520 nm and 550 nm.
For the ability of compounds to suppress the increase in nitric oxide release, the percent maximal intensity of nitric oxide detected in each well was normalized to that induced by the peak value for 20 ng/mL of interferon gamma alone and plotted against the compound concentration to calculate IC50 values and to control for plate-to-plate variability. Concentration-response data were analyzed using GraphPad Prism (San Diego, Calif.); the IC50 values were derived from a single curve fit to the mean data of n=2-3, in duplicates.
All compounds were dissolved in dimethyl sulfoxide at 10 mM stock solutions and tested at a concentration that the dimethyl sulfoxide levels never exceeded 1%.

First: Cc1nc(O)c2c(n1)[C@@]1(c3ccccc3)C=C(C#N)C(=O)[C@@H](C)[C@@H]1CC2 [Example 20, (6aS,7S,10aR)-4-hydroxy-2,7-dimethyl-8-oxo-10a-phenyl-5,6,6a,7,8,10a-hexahydrobenzo[h]quinazoline-9-carbonitrile]
Second: Cc1nc(-c2ccoc2)c2c(n1)[C@@]1(c3ccccc3)C=C(C#N)C(=O)[C@@H](C)[C@@H]1CC2 [Example 23, (6aS,7S,10aR)-4-(3-furyl)-2,7-dimethyl-8-oxo-10a-phenyl-5,6,6a,7,8,10a-hexahydrobenzo[h]quinazoline-9-carbonitrile]
The IC50 of the first is 6.4-fold higher: 45 nM for the first, 6.98 nM for the second.

Compared with Cc1nc(-c2ccccc2)c2c(n1)[C@@]1(c3ccccc3)C=C(C#N)C(=O)[C@@H](C)[C@@H]1CC2 [Example 21, (6aS,7S,10aR)-2,7-dimethyl-8-oxo-4,10a-diphenyl-5,6,6a,7,8,10a-hexahydrobenzo[h]quinazoline-9-carbonitrile], Cc1nc(-c2ccncc2)c2c(n1)[C@@]1(c3ccccc3)C=C(C#N)C(=O)[C@@H](C)[C@@H]1CC2 [Example 27, (6aS,7S,10aR)-2,7-dimethyl-8-oxo-10a-phenyl-4-(pyridin-4-yl)-5,6,6a,7,8,10a-hexahydrobenzo[h]quinazoline-9-carbonitrile] is 1.7-fold lower in IC50: 9.94 nM for the first, 5.9 nM for the second.

Going from Cc1nc(-c2cncnc2)c2c(n1)[C@@]1(c3ccccc3)C=C(C#N)C(=O)[C@@H](C)[C@@H]1CC2 [Example 22, (6aS,7S,10aR)-2,7-dimethyl-8-oxo-10a-phenyl-4-(pyrimidin-5-yl)-5,6,6a,7,8,10a-hexahydrobenzo[h]quinazoline-9-carbonitrile] to C[C@@H]1C(=O)C(C#N)=C[C@]2(c3ccccc3)c3c(c(-c4cccnc4)nn3C)CC[C@@H]12 [Example 26, (5aS,6S,9aR)-1,6-dimethyl-7-oxo-9a-phenyl-3-(pyridin-3-yl)-4,5,5a,6,7,9a-hexahydro-1H-benzo[g]indazole-8-carbonitrile], the IC50 falls from 31.8 nM to 1.3 nM (24-fold).

First: C[C@@H]1C(=O)C(C#N)=C[C@]2(c3ccccc3)c3n[nH]cc3CC[C@@H]12 [Example 24, (5aS,6S,9aR)-6-methyl-7-oxo-9a-phenyl-4,5,5a,6,7,9a-hexahydro-2H-benzo[g]indazole-8-carbonitrile]
Second: CC(=O)n1cc2c(n1)[C@@]1(c3ccccc3)C=C(C#N)C(=O)[C@@H](C)[C@@H]1CC2 [Example 28, (5aS,6S,9aR)-2-acetyl-6-methyl-7-oxo-9a-phenyl-4,5,5a,6,7,9a-hexahydro-2H-benzo[g]indazole-8-carbonitrile]
The IC50 of the first is 1.7-fold higher: 67.7 nM for the first, 39 nM for the second.

First: COc1nc(-c2ccccc2F)nc2c1CC[C@H]1[C@H](C)C(=O)C(C#N)=C[C@]21c1ccccc1 [Example 25, (6aS,7S,10aR)-2-(2-fluorophenyl)-4-methoxy-7-methyl-8-oxo-10a-phenyl-5,6,6a,7,8,10a-hexahydrobenzo[h]quinazoline-9-carbonitrile]
Second: CC(C)Oc1nc(-c2ccccc2F)nc2c1CC[C@H]1[C@H](C)C(=O)C(C#N)=C[C@]21c1ccccc1 [Example 31, (6aS,7S,10aR)-2-(2-fluorophenyl)-4-isopropoxy-7-methyl-8-oxo-10a-phenyl-5,6,6a,7,8,10a-hexahydrobenzo[h]quinazoline-9-carbonitrile]
The IC50 of the first is 7.2-fold lower: 37.8 nM for the first, 272 nM for the second. The first is the more potent here.

First: C[C@@H]1C(=O)C(C#N)=C[C@]2(c3ccccc3)c3nc(-c4ccncc4)ncc3CC[C@@H]12 [Example 29, (6aS,7S,10aR)-7-methyl-8-oxo-10a-phenyl-2-(pyridin-4-yl)-5,6,6a,7,8,10a-hexahydrobenzo[h]quinazoline-9-carbonitrile]
Second: CCN(CC)c1ncc2c(n1)[C@@]1(c3ccccc3)C=C(C#N)C(=O)[C@@H](C)[C@@H]1CC2 [Example 30, (6aS,7S,10aR)-2-(diethylamino)-7-methyl-8-oxo-10a-phenyl-5,6,6a,7,8,10a-hexahydrobenzo[h]quinazoline-9-carbonitrile]
The IC50 of the first is 8.9-fold lower: 6.36 nM for the first, 56.8 nM for the second.
